Publication PMC8036666, “Biological and Physico-Chemical Characteristics of Arginine-Rich Peptide Gemini Surfactants with Lysine and Cystine Spacers” (International Journal of Molecular Sciences, 2021)
In brackets after ≈: the same amount, converted by molar mass. Several values for one entry are separate records, joined by “and”; a condition that tells them apart may be missing. Identical values can stand only once. Like-named read-outs stand apart in the source and are kept apart here. Where a SMILES comes first, the peptide text is derived from it. Bridges are numbered along the chain shown (N, C = ends). Roman numbers before positions name the chains, in order. [ ]: non-standard residue; d: D form. The star is where a group is joined. Nle = CCCC[C@H](N)C(=O)O; Octanoyl = CCCCCCCC(=O)*

Key:
[1] = test system: Klebsiella pneumoniae ATCC 700603
Protocol: (§1) The Acinetobacter baumannii ATCC BAA-1605, Enterococcus faecium ATCC 700221, Escherichia coli ML-35 ATCC 43827, Klebsiella aerogenes ATCC 13048, Klebsiella pneumoniae ATCC 700603, Pseudomonas aeruginosa ATCC 9027, Staphylococcus aureus ATCC 25923, Staphylococcus aureus ATCC 33591, Candida albicans ATCC 10231, Candida glabrata ATCC 15126, strains were acquired from the American Type Culture Collection (ATCC). All the strains were stored at −80 °C in Roti-Store cryo vials and before the tests were transferred into fresh Mueller–Hinton broth (MHB, Biocorp, Warsaw, Poland) for bacteria or RPMI-1640 (Sigma-Aldrich, Steinheim, Germany) for fungi and incubated for 24 h at 37 °C. Then, the cultures were seeded on the Mueller–Hinton agar (BioMaxima, Lublin, Poland) or Sabouraud dextrose agar (SDA, BioMaxima, Lublin, Poland) plates, respectively, and incubated as just mentioned. These agar cultures were used for further microbiological assays. Cell densities for all assays were adjusted spectrophotometrically (Multiskan GO Microplate Spectrophotometer, Thermo Fisher Scientific, Vantaa, Finland) at 600 and 530 nm for bacteria and fungi, respectively.
(§2) The MICs were determined by the broth microdilution method according to the Clinical and Laboratory Standard Institute guidelines. […] The experiments were conducted on 96-well microtiter polystyrene plates (Kartell, Noviglio, Italy). The growth was assessed visually after incubation, and the MIC was assumed as the lowest peptide concentration at which a noticeable growth of microorganisms was inhibited. All experiments were conducted in triplicate.

[2] = test system: Enterococcus faecium ATCC 700221; details: ATCC 700221, 24 h
Protocol: as §1, §2

[3] = test system: Staphylococcus aureus ATCC 25923; details: ATCC 25923, 24 h
Protocol: as §1, §2

[4] = test system: Pseudomonas aeruginosa ATCC 9027; details: ATCC 9027, 24 h
Protocol: as §1, §2

[5] = test system: Acinetobacter baumannii ATCC BAA 1605; details: ATCC BAA 1605, 24 h
Protocol: as §1, §2

[6] = test system: Klebsiella aerogenes ATCC 13048; details: ATCC 13048, 24 h
Protocol: as §1, §2

[7] = Lipopeptide hydrophobicity by RP-HPLC (adjusted retention time); assay type: physicochemical; details: for Adjusted Retention Time: RP-HPLC, 20–65% acetonitrile over 30 min, indicator of hydrophobicity; for Difference in retention time calculated as tR’C—tR’B: between corresponding surfactants of series C and B
Protocol: (§3) The identity of the purified peptides was confirmed with electrospray ionization mass spectrometry (ESI-MS) in positive ion mode. Results of MS analyses and net charge are attached in Supplementary Materials (Table S1). Peptides’ hydrophobicity was evaluated by analytical reversed-phase high-performance liquid chromatography (RP-HPLC). The critical aggregation concentrations (CACs) of the lipopeptides were determined in unbuffered aqueous solution at 298 K by measuring the surface tension as a function of lipopeptide concentration. The measurements were carried out by the Du Noüy ring method on a K100 tensiometer. The surface tension data were plotted against the logarithm of lipopeptide concentration. CAC was found as the intersection of two lines being linear regression of data below and above CAC.
Lipopeptide hydrophobicity was determined as described previously. To do this, a Waters Alliance e2695 system with a Waters 2998 PDA Detector (software-Empower 3, Waters, Milford, MA, USA) was used. All analyses were carried out on a Waters X-Bridge Shield RP-18 column (3.0 × 100 mm, 3.5 μm particle size, 130 Å pore size). The Shield Technology column with embedded polar groups was used to minimize interactions of unreacted silanol groups with basic lipopeptides. The peptides were dissolved in water (0.1% TFA, v/v) up to a concentration of 1 mg/mL. UV detection at 214 nm was used, and samples (10 μL) were eluted with a linear 20–65% acetonitrile gradient in deionized water over 30 min at 25.0 ± 0.1 °C. The mobile phase flow rate was 0.5 mL/min. Both eluents contained 0.1% (v/v) of TFA. Each peptide sample was analyzed in triplicate. The maximum standard deviation and coefficient of variation were 0.044 and 0.85%, respectively.

[8] = Critical aggregation concentration by surface tension (Du Noüy ring, K100 tensiometer); assay type: physicochemical; details: for CAC / Surface Tension at CAC: unbuffered aqueous solution, 298 K
Protocol: as §3
The critical aggregation concentration (CAC) values were determined fully automatically using a K100 tensiometer (KRUSS, Hamburg, Germany) equipped with two micro dosimeters by measuring the surface tension vs. lipopeptide concentration. The measurements were performed in unbuffered aqueous solution at 298 K using the Du Noüy ring method. The accuracy of the surface tension measurements was 0.1 mN/m. The critical aggregation concentration (CAC) was defined as the intersection of two lines fitted to the experimental data collected before and after the inflection point.

C. albicans ATCC 10231 = details: ATCC 10231, 24 h
Protocol: as §1
(§4) The MICs were determined by the broth microdilution method according to the Clinical and Laboratory Standard Institute guidelines. For this purpose, initial inoculums of bacteria (5 × 10^5 CFU/mL) in MHB and yeasts (2 × 10^3 CFU/mL) in RPMI-1640 with 2% D-glucose were exposed to the ranging concentration of lipopeptides (0.5–256 μg/mL) and incubated at 37 °C for 18 h and 24 h, respectively. The experiments were conducted on 96-well microtiter polystyrene plates (Kartell, Noviglio, Italy). The growth was assessed visually after incubation, and the MIC was assumed as the lowest peptide concentration at which a noticeable growth of microorganisms was inhibited. All experiments were conducted in triplicate.

C. glabrata ATCC 15126 = details: ATCC 15126, 24 h
Protocol: as §1, §4

Row | MIC Klebsiella pneumoniae ATCC 700603 ([1]; planktonic culture) | SMILES | MIC Enterococcus faecium ATCC 700221 [2] | MIC Staphylococcus aureus ATCC 25923 [3] | MIC Pseudomonas aeruginosa ATCC 9027 [4] | MIC Acinetobacter baumannii ATCC BAA 1605 [5] | MIC Klebsiella aerogenes ATCC 13048 [6] | Adjusted Retention Time [7] | Difference in retention time calculated as tR’C—tR’B [7] | CAC [8] | Surface Tension at CAC [8] | MIC C. albicans ATCC 10231 (C. albicans ATCC 10231) | MIC C. glabrata ATCC 15126 (C. glabrata ATCC 15126) | MIC Klebsiella pneumoniae ATCC 700603 ([1]; ATCC 700603, 24 h) | increase in the CAC value by branching of the acyl chains ([8]; C7 compared with C3)
1 | 64 µg/mL (≈ 47.7 µM) | CCCCCCCC(=O)N[C@@H](CCCC)C(=O)N[C@@H](CCCNC(=N)N)C(=O)N[C@@H](CCCNC(=N)N)C(=O)N[C@@H](CSSC[C@H](NC(=O)[C@H](CCCNC(=N)N)NC(=O)[C@H](CCCNC(=N)N)NC(=O)[C@H](CCCC)NC(=O)CCCCCCC)C(N)=O)C(N)=O [Compound C6] (I: Octanoyl-[Nle]RRC-NH2 / II: Octanoyl-[Nle]RRC-NH2; disulfide I:4-II:4) | 2 µg/mL (≈ 1.49 µM) | 2 µg/mL (≈ 1.49 µM) | 8 µg/mL (≈ 5.96 µM) | 32 µg/mL (≈ 23.8 µM) | 256 (−/−) µg/mL | 14.29 min | 0.33 min | 4.28 mM and 5737.7 μg/mL | 35 mN/m | 16 µg/mL (≈ 11.9 µM) | 16 µg/mL (≈ 11.9 µM) | – | –
2 | – | CCCCCCC(CCCC)C(=O)N[C@@H](CCCNC(=N)N)C(=O)N[C@@H](CCCNC(=N)N)C(=O)N[C@@H](CSSC[C@H](NC(=O)[C@H](CCCNC(=N)N)NC(=O)[C@H](CCCNC(=N)N)NC(=O)C(CCCC)CCCCCC)C(N)=O)C(N)=O (stereo partly shown) [Compound C7] | 2 µg/mL (≈ 1.63 µM) | 2 µg/mL (≈ 1.63 µM) | 4 µg/mL (≈ 3.26 µM) | 32 µg/mL (≈ 26.1 µM) | 16 µg/mL (≈ 13 µM) | 14.83 min | 0.15 min | 6.21 mM and 7628.1 μg/mL | 35 mN/m | 16 µg/mL (≈ 13 µM) | 16 µg/mL (≈ 13 µM) | 32 µg/mL (≈ 26.1 µM) | ca. 25 fold
